One assay deals with T1, human FIXa (Homo sapiens, UniProt P00740).
T1 construct: with (+) and without (−) addition of 50 ng human FIXaβ; purchased ERL (Enzyme Research Laboratories)
In words: Chromogenic FVIII-like (FXa generation) assay with human FIXa added. Format: biochemical. Here is the method:
The chromogenic activity of these antibody preparations was measured in the following FXa generation kinetic assay: 10 μg of monoclonal antibody (in 25 μl) were transferred to microtiter plate wells and warmed to 37° C. Chromogenic substrate (S-2222), synthetic thrombin inhibitor (I-2581), factor IXa and FX were reconstituted in sterile water and FIXa/FX (both bovine) were mixed with phospholipids according to the supplier's protocol. Per reaction, 50 μl of the phospholipid/FIXa/FX solution were combined with 25 μl CaCl2 (25 mM) and 50 μl of the substrate/inhibitor cocktail. To start the reaction, 125 μl of the premix were added to the monoclonal antibody solution in the microtiter plates and incubated at 37° C. Absorbance at 405 nm and 490 nm of the samples was read at various times (5 min to 2 h) against a reagent blank ([…] TBS instead of monoclonal antibodies) in a Labsystems iEMS Reader MF™ microtiter plate reader using GENESIS™ software. In parallel, the same reactions were performed except that 50 ng human FIXa were added per reaction.
To analyze the FVIII-like (FIXa activating) activity of the peptides, an assay system based on a commercial available FVIII assay was developed (see examples 2 and 4). The basic principle is, that without a cofactor, FIXa will have very limited activity towards its natural substrate FX. […] The amount of FXa generated is monitored by cleavage of a chromogenic substrate. The principle of the revised chromogenic assay is described for two representative peptides: A1/3 and A1/5 (Table 2). Briefly, 25 μl aliquots of peptide stock solution (in imidazole buffer (IZ) 50 mM imidazole, 100 mM NaCl, pH 7.2) were transferred to microtiter plate wells and warmed to 37° C. Chromogenic FXa substrate (S-2222), synthetic thrombin inhibitor (I-2581), bovine FIXa and bovine FX were reconstituted in sterile water and FIXa/FX mixed with phospholipids according to the supplier's protocol. […] Per reaction, 50 μl of the phospholipid/FIXa/FX solution were combined with 25 μl CaCl2 (25 mM) and 50 μl of the substrate/inhibitor cocktail. To start the reaction, 125 μl of the premix were added to the peptide solution in the microtiter plate and incubated at 37° C. Absorbance at 405 nm and 490 nm of the samples was read at various times (5 min to 2 h) against a reagent blank in a Labsystems iEMS Reader MF™ microtiter plate reader using GENESIS™ software.

For a further assay, the system named is FVIII deficient plasma. Briefly: aPTT based one stage clotting assay in FVIII deficient plasma. Format: biochemical, human. Particulars: for one-stage clotting time (printed in brackets after 'strong reduction' / 'strongly active'): 12.5 μM, 2.2 nM human FIXa. As to the method: During normal hemostasis, FIX becomes initially activated either by the tissue factor (TF)/factor VIIa pathway or later on by activated factor XI (FXIa). Subsequent to its activation, FIXa associates on the platelet surface in a membrane bound complex with activated FVIII. […] Different amounts of antibody 193/AD3 or mouse IgG (as a control) were used in a standard aPTT based one stage clotting assay. Briefly, 100 μl of antibody-containing samples were incubated with 100 μl of FVIII deficient plasma (DP) and with 100 μl of DAPTTIN (PTT Reagent for determining activated Thromboplastin Time; IMMUNO AG) reagent, in a KC10A clotting analyzer. Where indicated, a total amount of 50 ng activated FIX was included in the reaction mixture. After a 4 minute incubation, the reaction was started by the addition of 100 μl CaCl2 (25 mM).
The peptides were also analyzed for their potential to reduce the clotting time in a FVIII deficient plasma. The aPTT based one stage clotting assay was essentially done as described (see example 6). Clotting times (time from starting the reaction to the “clot”-formation were compared either against FVIII, a buffer control (IZ) or a control peptide (scrambled version). The results of two typical clotting experiments done with two different aPTT reagents (DAPTTIN and Pathromtin SL) are shown in table 3A and table 3B.

Setting [1] is: in the presence of 2.2 nM human FIXa.

Here are results for four substances from patent publication US7279161B2, “Factor IX/factor IXa activating antibodies and antibody derivatives” (Baxter Aktiengesellschaft, priority 1999, dated 2007).

As to RdRdRdEGGGYYVNWYFDRdRdRd [A1/3-Rd], the chromogenic activity result at human FIXa (12 μM peptide, 2.3 nM human FIXa) is “virtually unchanged”; at human FIXa (12 μM peptide, 2.3 nM human FIXa, listed as A1/3-rd), “did not change the FVIII-like activity”. The average clotting time worked out at 96 s in the assay with FVIII deficient plasma (Table 4, 1.25 μM, 2.2 nM FIXa); 108 s with FVIII deficient plasma (Table 4, 1.25 μM, w/o FIXa); 95 s in the assay with FVIII deficient plasma (Table 4, 2.5 μM, 2.2 nM FIXa); 103 s with FVIII deficient plasma (Table 4, 2.5 μM, w/o FIXa); 86 s in the assay with FVIII deficient plasma (Table 4, 5 μM, 2.2 nM FIXa); 99 s in the assay on FVIII deficient plasma (Table 4, 5 μM, w/o FIXa). The average clotting time with FVIII deficient plasma (Table 4, 7.5 μM, 2.2 nM FIXa) turned out to be 82 s; with FVIII deficient plasma (Table 4, 7.5 μM, w/o FIXa), 98 s; in the assay with FVIII deficient plasma (Table 4, 10 μM, 2.2 nM FIXa) it was 76 s; with FVIII deficient plasma (Table 4, 10 μM, w/o FIXa), 95 s; in the assay on FVIII deficient plasma (Table 4, 12.5 μM, 2.2 nM FIXa), 73 s; in the assay on FVIII deficient plasma (Table 4, 12.5 μM, w/o FIXa), 98 s. The average clotting time came to 75 s with FVIII deficient plasma (Table 4, 15 μM, 2.2 nM FIXa) and 96 s in the assay with FVIII deficient plasma (Table 4, 15 μM, w/o FIXa). Besides, the clotting time in the assay on FVIII deficient plasma (Table 4, 1.25 μM, 2.2 nM FIXa, duplicate 1) came out at 96.6 s; in the assay on FVIII deficient plasma (Table 4, 1.25 μM, 2.2 nM FIXa, duplicate 2), 96 s; in the assay on FVIII deficient plasma (Table 4, 1.25 μM, w/o FIXa, duplicate 1), 107.5 s; in the assay on FVIII deficient plasma (Table 4, 1.25 μM, w/o FIXa, duplicate 2), 107.7 s; in the assay on FVIII deficient plasma (Table 4, 2.5 μM, 2.2 nM FIXa, duplicate 1), 94.4 s; in the assay with FVIII deficient plasma (Table 4, 2.5 μM, 2.2 nM FIXa, duplicate 2) it was 94.7 s. In addition, the clotting time turned out to be 102.7 s in the assay on FVIII deficient plasma (Table 4, 2.5 μM, w/o FIXa, duplicate 1); 103.4 s with FVIII deficient plasma (Table 4, 2.5 μM, w/o FIXa, duplicate 2); 86 s with FVIII deficient plasma (Table 4, 5 μM, 2.2 nM FIXa, duplicate 1); 85.1 s in the assay with FVIII deficient plasma (Table 4, 5 μM, 2.2 nM FIXa, duplicate 2); 99.2 s with FVIII deficient plasma (Table 4, 5 μM, w/o FIXa, duplicate 1); 99.1 s with FVIII deficient plasma (Table 4, 5 μM, w/o FIXa, duplicate 2). Also, the clotting time was 80.9 s with FVIII deficient plasma (Table 4, 7.5 μM, 2.2 nM FIXa, duplicate 1); 82.2 s with FVIII deficient plasma (Table 4, 7.5 μM, 2.2 nM FIXa, duplicate 2); 97.6 s in the assay with FVIII deficient plasma (Table 4, 7.5 μM, w/o FIXa, duplicate 1); 98.1 s in the assay with FVIII deficient plasma (Table 4, 7.5 μM, w/o FIXa, duplicate 2); 74.2 s in the assay on FVIII deficient plasma (Table 4, 10 μM, 2.2 nM FIXa, duplicate 1); 77.2 s with FVIII deficient plasma (Table 4, 10 μM, 2.2 nM FIXa, duplicate 2). Besides, the clotting time with FVIII deficient plasma (Table 4, 10 μM, w/o FIXa, duplicate 1) worked out at 93.5 s; with FVIII deficient plasma (Table 4, 10 μM, w/o FIXa, duplicate 2), 95.8 s; in the assay on FVIII deficient plasma (Table 4, 12.5 μM, 2.2 nM FIXa, duplicate 1), 72.3 s; in the assay with FVIII deficient plasma (Table 4, 12.5 μM, 2.2 nM FIXa, duplicate 2), 73.7 s; in the assay on FVIII deficient plasma (Table 4, 12.5 μM, w/o FIXa, duplicate 1), 98 s; in the assay on FVIII deficient plasma (Table 4, 12.5 μM, w/o FIXa, duplicate 2), 98.6 s. Besides, the clotting time in the assay on FVIII deficient plasma (Table 4, 15 μM, 2.2 nM FIXa, duplicate 1) worked out at 76.1 s; in the assay on FVIII deficient plasma (Table 4, 15 μM, 2.2 nM FIXa, duplicate 2), 74.4 s; in the assay with FVIII deficient plasma (Table 4, 15 μM, w/o FIXa, duplicate 1) it was 96.4 s; in the assay on FVIII deficient plasma (Table 4, 15 μM, w/o FIXa, duplicate 2), 95.4 s. The “aPTT based one-stage clotting activity” value in the assay on FVIII deficient plasma (compared with A1/3) is given as “somewhat reduced, was still easily detectable”.

As to RRRFGVGYGETNFDWRRR [B1/7scr3], on human FIXa (data not shown), the “FIXa activating activity in chromogenic assay” value is recorded as “no activity”. Also, the clotting time in the assay with FVIII deficient plasma (12.5 nM peptide, (+) presence of activated human FIX) stood at 94 s; in the assay with FVIII deficient plasma (12.5 nM peptide, (−) absence of activated human FIX), 105 s; with FVIII deficient plasma (0.125 μM peptide, (+) presence of activated human FIX), 94 s; in the assay on FVIII deficient plasma (0.125 μM peptide, (−) absence of activated human FIX) it was 106 s; in the assay on FVIII deficient plasma (1.25 μM peptide, (+) presence of activated human FIX), 94 s; in the assay on FVIII deficient plasma (1.25 μM peptide, (−) absence of activated human FIX), 105 s. For the same substance, the clotting time in the assay on FVIII deficient plasma (12.5 μM peptide, (+) presence of activated human FIX) was 102 s; in the assay with FVIII deficient plasma (12.5 μM peptide, (−) absence of activated human FIX), 115 s.

For RRREGAGYYVNWYFDRRR [A1/3-2], the chromogenic activity entry on human FIXa (Alanine scan) is “high chromogenic activity”. Further, the “one-stage clotting time (printed in brackets after 'strong reduction' / 'strongly active')” value in the assay on FVIII deficient plasma amounted to 34 s. For the same substance, in the assay with FVIII deficient plasma (setting [1]), the one-stage clotting activity result is on record as “strong reduction of the one-stage clotting time”.

Regarding RRREGGAYYVNWYFDRRR [A1/3-3], the “final concentration of optimum chromogenic activity” value on human FIXa is around 12 µM. Also, the “one-stage clotting time (printed in brackets after 'strong reduction' / 'strongly active')” value with FVIII deficient plasma came to 31 s. Moreover, the one-stage clotting activity entry with FVIII deficient plasma (higher concentrations (12.5 μM), absence of FIXa) is “somewhat inhibitory”; in the assay with FVIII deficient plasma (setting [1]), “strongly active”.
